Calls of active or inactive are those of the source.
Assays:
CAAX prenyl protease 2 [1] = molecular target: T1, CAAX prenyl protease 2 (Homo sapiens, UniProt Q9Y256); test: inhibition of Ras-converting CAAX protease Rce1 – biochemical, yeast membranes, quenched-peptide fluorescence, cherry-pick, dose response (AID 588849)
T1 sequence (Q9Y256 whole entry): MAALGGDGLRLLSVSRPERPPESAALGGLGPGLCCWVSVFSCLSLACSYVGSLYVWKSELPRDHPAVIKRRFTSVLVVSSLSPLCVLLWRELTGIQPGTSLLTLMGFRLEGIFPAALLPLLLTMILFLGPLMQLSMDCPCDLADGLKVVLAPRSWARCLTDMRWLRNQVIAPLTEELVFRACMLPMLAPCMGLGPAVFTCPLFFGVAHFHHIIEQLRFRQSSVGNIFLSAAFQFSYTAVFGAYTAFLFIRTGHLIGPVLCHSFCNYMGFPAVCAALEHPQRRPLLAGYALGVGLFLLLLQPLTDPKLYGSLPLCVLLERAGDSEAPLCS

CAAX prenyl protease 2 [2] = molecular target: T2, CAAX prenyl protease 2 (Saccharomyces cerevisiae S288c, UniProt Q03530); format: biochemical
T2 sequence (Q03530 whole entry): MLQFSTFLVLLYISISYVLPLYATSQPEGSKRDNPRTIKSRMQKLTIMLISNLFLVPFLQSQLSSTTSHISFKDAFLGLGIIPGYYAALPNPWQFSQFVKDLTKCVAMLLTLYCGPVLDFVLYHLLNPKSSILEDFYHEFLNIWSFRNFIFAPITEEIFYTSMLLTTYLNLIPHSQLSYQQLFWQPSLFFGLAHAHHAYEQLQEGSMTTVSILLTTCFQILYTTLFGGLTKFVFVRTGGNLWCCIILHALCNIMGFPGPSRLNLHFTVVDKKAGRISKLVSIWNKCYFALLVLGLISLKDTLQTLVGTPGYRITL

Trypsin = Trypsin (Sus scrofa, UniProt P00761); test: trypsin protease activity blockade – biochemical, quenched peptide fluorescence, cherry-pick, selectivity assay for Rce1 protease inhibitor project, dose response (AID 488789)
HEK293 [3] = test: cells; settings: Homo sapiens
[4] = viability loss in HepG2 hepatoma cells – cell-based, ATP luminescence, cherry-pick, activator set 2, cytotoxicity control, dose response (AID 1053143); format: functional
Protein RecA = molecular target: T3, Protein RecA (Mycobacterium tuberculosis, UniProt P9WHJ3); test: Fluorescence Cell-Free Homogeneous Dose Retest to Identify Inhibitors of RecA-Intein Splicing Activity. [Related pubchem assays (depositor defined):AID2097, AID2223, AID489010, AID492950]; format: functional
T3 sequence (P9WHJ3 whole entry): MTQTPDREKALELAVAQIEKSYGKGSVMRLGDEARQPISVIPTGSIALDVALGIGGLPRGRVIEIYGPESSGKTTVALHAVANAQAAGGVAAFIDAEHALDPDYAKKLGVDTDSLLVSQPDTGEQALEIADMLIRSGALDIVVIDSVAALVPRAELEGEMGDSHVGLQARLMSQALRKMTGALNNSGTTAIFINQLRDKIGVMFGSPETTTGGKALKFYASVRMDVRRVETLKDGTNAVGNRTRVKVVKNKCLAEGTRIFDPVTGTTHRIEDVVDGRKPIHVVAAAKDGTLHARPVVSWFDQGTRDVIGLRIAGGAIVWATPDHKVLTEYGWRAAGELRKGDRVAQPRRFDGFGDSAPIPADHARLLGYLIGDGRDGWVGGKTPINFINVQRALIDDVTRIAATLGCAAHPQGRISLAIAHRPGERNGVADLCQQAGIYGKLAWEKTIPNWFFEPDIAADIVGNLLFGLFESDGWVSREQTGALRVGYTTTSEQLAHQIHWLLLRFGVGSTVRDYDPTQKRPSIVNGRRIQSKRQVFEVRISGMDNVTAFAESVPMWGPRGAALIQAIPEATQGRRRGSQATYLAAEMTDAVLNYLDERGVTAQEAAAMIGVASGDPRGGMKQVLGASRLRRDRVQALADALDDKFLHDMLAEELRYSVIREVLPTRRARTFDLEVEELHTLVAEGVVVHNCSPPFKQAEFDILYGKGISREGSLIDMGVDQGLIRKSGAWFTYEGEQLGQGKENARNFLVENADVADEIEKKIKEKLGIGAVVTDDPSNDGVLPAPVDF

HEK293 [5] = test: cells; settings: Homo sapiens; remark: listed apart in the source
[6] = molecular target: T4, Microphthalmia-associated transcription factor (Homo sapiens, UniProt O75030); test: reducers of TRPM1 reporter luminescence, concentration series – cell-based, SK-MEL-5, cherry-picked, set 3, MITF inhibitor project, dose response (AID 493073); format: functional;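 note: SK-MEL-5 melanoma cells with luciferase driven by the MITF target TRPM1 promoter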
T4 sequence (O75030 whole entry): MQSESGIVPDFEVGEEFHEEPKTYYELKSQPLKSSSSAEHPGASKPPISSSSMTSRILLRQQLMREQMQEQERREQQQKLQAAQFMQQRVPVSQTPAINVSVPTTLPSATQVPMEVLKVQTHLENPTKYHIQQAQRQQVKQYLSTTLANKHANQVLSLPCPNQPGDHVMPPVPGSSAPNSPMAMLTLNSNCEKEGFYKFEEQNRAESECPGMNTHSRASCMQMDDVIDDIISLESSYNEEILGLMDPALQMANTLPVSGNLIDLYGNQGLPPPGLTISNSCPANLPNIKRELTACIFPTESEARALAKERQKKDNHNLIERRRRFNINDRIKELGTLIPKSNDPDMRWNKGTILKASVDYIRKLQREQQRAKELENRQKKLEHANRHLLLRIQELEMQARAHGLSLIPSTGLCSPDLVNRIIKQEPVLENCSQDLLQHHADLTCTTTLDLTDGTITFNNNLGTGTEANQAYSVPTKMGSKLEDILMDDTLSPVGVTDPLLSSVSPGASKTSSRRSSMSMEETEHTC

[7] = molecular target: T5, Replicative DNA helicase DnaB (Mycobacterium tuberculosis, UniProt P9WMR3); test: DnaB intein splicing inhibitors, dose response, biochemical, cell-free fluorescence (AID 449749); format: functional
T5 sequence (P9WMR3 whole entry): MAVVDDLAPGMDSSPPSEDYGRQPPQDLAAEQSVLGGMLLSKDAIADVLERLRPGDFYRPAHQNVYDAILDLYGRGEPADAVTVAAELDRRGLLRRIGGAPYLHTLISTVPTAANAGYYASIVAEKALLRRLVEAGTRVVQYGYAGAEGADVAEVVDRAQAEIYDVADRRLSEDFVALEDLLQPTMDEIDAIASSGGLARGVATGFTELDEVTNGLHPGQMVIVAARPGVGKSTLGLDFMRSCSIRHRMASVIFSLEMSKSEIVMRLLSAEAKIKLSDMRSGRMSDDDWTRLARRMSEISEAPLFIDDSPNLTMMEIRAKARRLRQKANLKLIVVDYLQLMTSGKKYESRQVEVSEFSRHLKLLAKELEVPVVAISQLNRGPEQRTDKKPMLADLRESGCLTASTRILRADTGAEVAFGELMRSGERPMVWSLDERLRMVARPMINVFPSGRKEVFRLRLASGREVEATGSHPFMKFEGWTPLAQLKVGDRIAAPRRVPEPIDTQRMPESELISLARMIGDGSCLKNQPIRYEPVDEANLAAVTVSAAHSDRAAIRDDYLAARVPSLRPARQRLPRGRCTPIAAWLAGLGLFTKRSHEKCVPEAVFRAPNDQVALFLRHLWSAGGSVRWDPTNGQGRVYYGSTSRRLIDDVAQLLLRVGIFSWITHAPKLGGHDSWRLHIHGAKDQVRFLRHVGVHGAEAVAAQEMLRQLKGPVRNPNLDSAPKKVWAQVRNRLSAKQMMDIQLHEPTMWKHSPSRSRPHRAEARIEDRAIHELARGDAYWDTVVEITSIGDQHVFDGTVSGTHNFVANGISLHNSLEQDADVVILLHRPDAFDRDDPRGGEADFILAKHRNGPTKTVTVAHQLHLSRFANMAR

[8] = Trypanosoma cruzi growth suppression in host cells – NIH3T3 host cells, beta-gal luminescence, confirmation (AID 2044); format: functional, cell-based;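 note: intracellular parasites grown in NIH/3T3 mouse fibroblasts as host cells; luminescent beta-galactosidase reporter signal from transgenic T. cruzi replicating inside host cells; inhibitors lower the luminescence signal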
cells = format: functional
[9] = microbe, parasite or virus in culture; format: functional; settings: Mycobacterium tuberculosis
A-375 = test: MITF: Counter assay: A375 proliferation Measured in Cell-Based System Using Plate Reader - 2084-03_Inhibitor_Dose_DryPowder_Activity. [Related pubchem assays (depositor defined):AID488944]; format: functional; settings: Homo sapiens
[10] = molecular target: T6, Heat shock factor protein 1 (Mus musculus, UniProt P38532); test: enhancement of HSF1-driven luciferase signal – cell-based, NIH3T3, luminescence, dose retest, confirmation (AID 435004); format: functional;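 note: stress induced by proteasome inhibitor MG132 added 30 min after compound; luciferase reporter driven by HSF1 response element in NIH3T3 cells; actives raise luminescence as potentiators of the MG132 stress response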
T6 sequence (P38532 whole entry): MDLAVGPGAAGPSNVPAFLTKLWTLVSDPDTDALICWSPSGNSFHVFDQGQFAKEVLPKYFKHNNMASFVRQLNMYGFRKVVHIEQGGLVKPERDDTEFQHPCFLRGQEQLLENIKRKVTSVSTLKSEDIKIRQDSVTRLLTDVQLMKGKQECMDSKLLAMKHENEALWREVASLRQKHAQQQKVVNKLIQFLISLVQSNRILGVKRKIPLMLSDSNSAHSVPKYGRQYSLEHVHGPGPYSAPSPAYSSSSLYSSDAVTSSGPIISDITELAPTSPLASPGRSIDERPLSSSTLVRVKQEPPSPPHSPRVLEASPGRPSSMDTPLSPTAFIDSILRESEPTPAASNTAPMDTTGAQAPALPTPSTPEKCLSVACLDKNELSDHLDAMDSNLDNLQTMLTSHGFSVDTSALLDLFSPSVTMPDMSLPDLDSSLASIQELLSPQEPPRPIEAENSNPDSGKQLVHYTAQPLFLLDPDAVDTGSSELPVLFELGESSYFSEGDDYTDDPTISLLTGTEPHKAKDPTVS

[11] = HepG2 cell cytotoxicity, dose response, cytotoxicity control for non-replicating M. tuberculosis project (AID 489018); format: functional; settings: Mycobacterium tuberculosis
[12] = Vero E6 cell cytotoxicity, dose response, cytotoxicity control for non-replicating M. tuberculosis project, secondary assay (AID 492998); format: functional, VeroE6; settings: Vero C1008
[13] = THP-1 cell cytotoxicity, dose response, cytotoxicity control for non-replicating M. tuberculosis project (AID 489025); format: functional
[14] = NIH3T3 cell viability loss – ATP luminescence, mouse fibroblasts, counter-screen, dose response (AID 2010); format: functional, cell-based;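 note: cells exposed to compound for about 90 hours before reading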
Escherichia coli = test: microbe, parasite or virus in culture
[15] = molecular target: Beta-2 adrenergic receptor (Homo sapiens, UniProt P07550); test: ADRB2 activation measured by internalization – cell-based, FAP fluorogen, flow cytometry, cherry pick 1, dose response (AID 588763); format: functional
[16] = molecular target: DNA dC->dU-editing enzyme APOBEC-3A (Homo sapiens, UniProt P31941); test: Dose Response confirmation of small molecule APOBEC3A DNA Deaminase Inhibitors via a fluorescence-based single-stranded DNA deaminase assay. [Related pubchem assays (depositor defined):AID493011, AID493024]; format: functional
[17] = molecular target: DNA dC->dU-editing enzyme APOBEC-3G (Homo sapiens, UniProt Q9HC16); format: functional;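 note: Dose-response counterscreen measuring inhibition of APOBEC3G DNA deaminase activity, run while confirming APOBEC3A inhibitors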
[18] = tested on: Streptococcus sp. 'group A'; test: Streptococcus pyogenes SK(-)GAS viability under kanamycin – luminescence, BacTiterGlo, confirmation, counter-screen for streptokinase expression inhibitor project, dose response (AID 1900); format: functional, organism-based
Streptococcus = test: GAS UMAA2166 growth inhibition – luminescence, BacTiterGlo, counter-screen for streptokinase expression inhibitor project, dose response (AID 1915); format: functional, organism-based;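 note: potency for reduction of bacterial viability or growth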

Sequence of Beta-2 adrenergic receptor (P07550 whole entry): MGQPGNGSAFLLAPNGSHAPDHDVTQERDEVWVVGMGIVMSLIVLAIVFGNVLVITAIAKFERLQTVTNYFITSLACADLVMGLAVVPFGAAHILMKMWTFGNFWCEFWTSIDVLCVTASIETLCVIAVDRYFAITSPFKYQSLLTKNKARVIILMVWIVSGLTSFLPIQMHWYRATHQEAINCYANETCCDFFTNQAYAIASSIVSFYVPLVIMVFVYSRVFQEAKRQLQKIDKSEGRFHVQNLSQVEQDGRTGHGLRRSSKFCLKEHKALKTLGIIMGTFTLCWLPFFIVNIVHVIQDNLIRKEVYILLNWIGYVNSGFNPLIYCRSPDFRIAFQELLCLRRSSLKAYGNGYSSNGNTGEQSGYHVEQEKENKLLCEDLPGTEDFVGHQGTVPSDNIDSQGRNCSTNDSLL
Sequence of Trypsin (P00761 whole entry): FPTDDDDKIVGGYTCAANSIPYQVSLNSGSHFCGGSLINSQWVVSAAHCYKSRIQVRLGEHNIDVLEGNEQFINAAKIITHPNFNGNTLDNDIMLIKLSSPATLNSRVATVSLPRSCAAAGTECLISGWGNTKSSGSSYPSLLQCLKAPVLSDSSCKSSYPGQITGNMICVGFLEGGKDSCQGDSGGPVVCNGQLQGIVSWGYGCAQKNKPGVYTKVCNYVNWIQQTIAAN
Sequence of DNA dC->dU-editing enzyme APOBEC-3A (P31941 whole entry): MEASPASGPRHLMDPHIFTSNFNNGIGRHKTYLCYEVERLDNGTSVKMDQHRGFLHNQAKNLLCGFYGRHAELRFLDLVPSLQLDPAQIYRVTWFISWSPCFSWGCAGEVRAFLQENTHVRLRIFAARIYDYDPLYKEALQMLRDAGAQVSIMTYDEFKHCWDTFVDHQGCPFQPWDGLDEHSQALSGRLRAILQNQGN
Sequence of DNA dC->dU-editing enzyme APOBEC-3G (Q9HC16 whole entry): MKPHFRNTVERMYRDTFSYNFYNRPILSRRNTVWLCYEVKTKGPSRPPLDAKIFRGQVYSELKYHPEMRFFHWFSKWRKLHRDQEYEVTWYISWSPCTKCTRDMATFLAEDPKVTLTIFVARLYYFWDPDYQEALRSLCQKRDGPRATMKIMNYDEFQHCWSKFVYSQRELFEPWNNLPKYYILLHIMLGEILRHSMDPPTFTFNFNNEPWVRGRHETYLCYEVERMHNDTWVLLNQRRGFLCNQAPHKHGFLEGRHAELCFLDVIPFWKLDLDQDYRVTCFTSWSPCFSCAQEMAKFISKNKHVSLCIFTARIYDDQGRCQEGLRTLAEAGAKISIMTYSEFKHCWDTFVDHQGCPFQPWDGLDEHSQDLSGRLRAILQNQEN

CC(C)OC(=O)c1c(N)n(CCCN2CCOCC2)c2nc3ccccc3nc12
AC50 (CAAX prenyl protease 2 [1]): 4.27 µM (active)
AC50 (CAAX prenyl protease 2 [2]): 11.9 µM (active)
AC50 (Trypsin): 6.98 µM (active)

COc1ccccc1NC(=O)c1cnc(SCC(=O)NCC2CCCO2)n(C)c1=O (stereo not given)
EC50 (HEK293 [3]): > 59.6 µM (inactive)
AC50 [4]: 42.4 µM (active)
EC50 (Protein RecA): 10.8 µM (active)
EC50 (HEK293 [5]): > 59.6 µM (inactive)
AC50 [6]: 8.88 µM (active)
AC50 [7]: 9.19 µM (active)

CC(C)(C)c1ccc(Cn2c(=N)n(CC(O)c3ccco3)c3ccccc32)cc1 (stereo not given)
EC50 [8]: 2.12 µM (active)
IC50 (cells): 22 µM (active)
CC50 [9]: 11.9 µM (active)
AC50 (A-375): 18.6 µM (active)
EC50 [10]: > 260 µM (inactive)
CC50 [11]: 9.26 µM (active)
CC50 [12]: 15.7 µM (active)
CC50 [13]: 9.05 µM (active)
AC50 [6]: 11.8 µM (active)
EC50 [14]: > 60 µM (not active)

O=C(Nc1ccccc1F)c1ccc([N+](=O)[O-])s1
EC50 [8]: 0.614 µM (active)
AC50 (Escherichia coli): 27.5 µM (active)
IC50 (cells): 4.91 µM (active)
CC50 [12]: > 20 µM (active)
CC50 [13]: 28.8 µM (active)
EC50 [14]: > 30 µM (not active)

COC(=O)c1cc([N+](=O)[O-])c(-n2cncn2)c([N+](=O)[O-])c1
EC50 [15]: 19 µM (inactive)

CCn1c(SCC(=O)N2CCCC2)nnc1-c1ccc(N)cc1
IC50 [16]: 2.31 µM (active)
IC50 [17]: 2.75 µM (active)
EC50 [15]: 2.07 µM (active)

CO[C@H]1C=CO[C@@]2(C)Oc3c(C)c(O)c4c(O)c(c(C=NN5CCN(C)CC5)c(O)c4c3C2=O)NC(=O)C(C)=CC=C[C@H](C)[C@H](O)[C@@H](C)[C@@H](O)[C@@H](C)[C@H](OC(C)=O)[C@@H]1C
AC50 (Escherichia coli): 14.8 µM (active)
EC50 [18]: < 0.06 µM (active)
EC50 (Streptococcus): < 0.06 µM (active)

NC(=O)N1N=C2/C(=C/c3ccccc3)CCCC2C1c1ccccc1 (stereo not given)
AC50 (CAAX prenyl protease 2 [1]): 12.1 µM (active)
AC50 (CAAX prenyl protease 2 [2]): 9.14 µM (active)
AC50 (Trypsin): 10.8 µM (active)

Reference: ChEMBL document CHEMBL1201862, “PubChem BioAssay data set” (2004)
